Measurements as given in patent US20060167076A1, “Acutumine and acutumine compounds synthesis and use” (priority 2002, published 2006).

What was measured:
[1] = test system: scopolamine-induced memory impairments; assay: Morris water maze test with scopolamine as amnesic agent; type: in vivo, mouse; settings: 60 mg/kg p.o.; scopolamine 5 mg/kg i.p.; control animals 43 seconds
Text: The anti-amnesic effects of the compounds of the present invention have been evaluated using the Morris water maze test (Morris et al., Nature, 1986, 319, 774-776) in the mouse and scopolamine as amnesic agent. Kumming strain mice (18-24 g, Shanghai Experimental Animal Centre) of either sex were used. Mice were placed on the water maze (80×50×20 cm) and trained to find the platform. Following the period of one day's habituation, each mouse received 3 daily training sessions for seven days. Mice were trained to a criterion of finding the platform within 20 seconds and with <2 errors of entering a dead-end. Once a mouse met the criterion, training was reduced to one daily session until all mice met the criterion. Trained mice were randomly assigned to sub-groups. Compounds under study were dissolved in distilled water and administered by the oral route 40 minutes before behavioural testing. Scopolamine (5 mg/kg, i.p.) was injected 30 minutes before the test. The number of errors and the time for reaching the platform were recorded. Data were expressed as means±s.e.m. Statistical analysis was performed using ANOVA followed by Duncan's multiple-range test.

[2] = test system: animal experimental models; assay: Mnemocognition in animal experimental models (unspecified); type: in vivo
Wistar rat [3] = assay: Social recognition in the Wistar rat; type: in vivo; settings: 20 mg/kg; second encounter after 2 hours
Text: Initially described in 1982 by THOR and HOLLOWAY (J. Comp. Physiol., 1982, 29 1000-1006), the social recognition test has subsequently been proposed by various authors (DANTZER et al., Psychopharmacology, 1987, 91, 363-368; PERIO et al., Psychopharmacology, 1989, 97, 262-268) for studying the mnemocognitive effects of new compounds. The test is based on the natural expression of the olfactory memory of the rat and its natural tendency to forget and allows evaluation of memorisation, by recognition of a young congeneric animal, by an adult rat. A young rat (21 days), taken at random, is placed for 5 minutes in the cage housing an adult rat. With the aid of a video device, the experimenter observes the social recognition behaviour of the adult rat and measures its overall duration. The young rat is then removed from the adult rat's cage and is placed in its own cage until the second introduction. The adult rat is given the compound under test and, after 2 hours, is again brought into the presence (5 minutes) of the young rat. The social recognition behaviour is then observed again and its duration measured. The assessment criterion is the difference (T2−T1), expressed in seconds, between the “recognition” times of the 2 encounters.

Wistar rat [4] = assay: Object recognition in the Wistar rat; type: in vivo; settings: 10 mg/kg; second session 24 hours later
Text: The object recognition test in the Wistar rat was initially developed by ENNACEUR and DELACOUR (Behav. Brain Res., 1988, 31, 47-59). The test is based on the spontaneous exploratory activity of the animal and has the characteristics of episodic memory in humans. This memory test is sensitive to ageing (SCALI et al., Eur. J. Pharmacol., 1997, 325, 173-180) and to cholinergic dysfunctions (BARTOLINI et al., Pharm. Biochem. Behav. 1996, 53(2), 277-283) and is based on the differences in the exploration of 2 objects of fairly similar shape—one familiar, the other new. Prior to the test, the animals are habituated to the environment (an enclosure without an object). In the course of a first session, the rats are placed (3 minutes) in the enclosure, in which there are 2 identical objects. The duration of exploration is measured for each object. In the course of the second session (3 minutes), 24 hours later, 1 of the 2 objects is replaced by a new object. The duration of exploration is measured for each object. The assessment criterion is the difference, Delta, expressed in seconds, between the exploration times for the new object and for the familiar object in the course of the second session.

Molecule: CCC(=O)OC1C(OC)=CC(=O)[C@]12[C@@H](Cl)CC13C(OC)=C(OC)C(=O)CC12CCN3C (stereo partly drawn) [Example 1, Spiro[(4S,5S)-4-(ethoxycarbonyl)-3-methoxy-2-cyclopenten-1-one-5:3(2S)-2-chloro-3aS,7aS-((2,3)-1-methylpyrrolidine)-6,7-dimethoxy-1,2,3,3a,4,7a-hexahydro-5H-inden-5-one]]
- time for reaching the platform [1]: ≤ 18 s

Molecule: COC1=CC(=O)C2(C1O)[C@@H](Cl)CC13C(OC)=C(OC)C(=O)CC21CCN3C (stereo partly shown) [acutumine]
- mnemocognition-facilitating properties [2]: mnemocognition-facilitating properties

Molecule: Spiro[(4S,5S)-4-hydroxy-3-methoxy-2-cyclopenten-1-one-5:3(2S)-2-chloro-3aS,7aS-((2,3)-1-methylpyrrolidine)-6,7-dimethoxy-1,2,3,3a,4,7a-hexahydro-5H-inden-5-one oxime] [Example 4]
- difference (T2−T1) between recognition times of the 2 encounters (Wistar rat [3]): -45 s
- difference, Delta, between exploration times for the new and the familiar object (Wistar rat [4]): 8 s
